Laboratory results published in patent US7417062B2, “Substituted arylamides” (ChemoCentryx, Inc., priority 2004, dated 2008).
Read-outs that look alike come from different tables or passages of the source.

Biological target: T1, CCXCKR2 receptor (Homo sapiens, UniProt P25106)
T1 construct: host or cells: MCF-7 (endogenous) and/or MDA-MB-435S transfected with hRDC1 in pcDNA3.1(+)
Assay: Displacement of 125I-labeled SDF-1 from the CCXCKR2 receptor (radioligand binding, determination of IC50 values)
Procedure: The ability of the compounds to displace the labeled chemokine from the CCXCKR2 receptor sites at multiple concentrations was then determined with the screening process.
Compounds that were deemed effective modulators were able to displace at least 50% of the SDF-1 from the CCXCKR2 receptor at concentrations at or below 10 micromolar (μM) and more preferably at concentrations at or below 2 micromolar. At present, especially preferred compounds can displace at least 50% of the SDF-1 from the CCXCKR2 receptor at concentrations at or below 500 nM. Exemplary compounds that met these criteria are reproduced in Table B below. All compounds were prepared as described in the Examples above, or by related methods substituting readily available starting materials.
Reagents and Cells. ^125I-labeled SDF-1 was purchased from Perkin-Elmer Life Sciences, Inc. (Boston, Mass.). The MCF-7 (adenocarcinoma; mammary gland) cell line was obtained from the American Type Culture Collection (Manassas, Va.) or and was cultured in DMEM (Mediatech, Herndon, Va.) supplemented with 10% fetal bovine serum (FBS) (HyClone Logan, Utah) and bovine insulin (0.01 mg/mL) (Sigma, St. Louis, Mo.) at 37° C. in a humidified incubator at a 5% CO2/air mixture. CCXCKR2 transfected MDA-MB-435S were produced as described below. MDA-MB-435S human breast cancer line, was purchased from ATCC, and cultured in DMEM/10% FBS medium. The complete coding sequence of the gene encoding CCXCKR2 (a.k.a.CXCR7, hRDC1), was isolated from MCF-7 cells using μMACs mRNA isolation kit (Miltenyi Biotec, Auburn, Calif.). DNA contamination was removed by DNase digestion via RNeasy columns (Qiagen, Inc., Valencia, Calif.) and cDNA was generated using GeneAmp RNA PCR Core Kit (Applied Biosystems, Foster City, Calif.). PCR of cDNA samples was performed using Taq PCR Master Mix kit (Qiagen, Inc.) and hRDC1 primers harboring 5′ and 3′ Not I sites (hRDC1F 5′-[…]-3′ (SEQ ID NO:1), hRDC1R 5′-[…]-3′ (SEQ ID NO:2)) Not I digested PCR product was ligated into Not I digested pcDNA3.1(+)(Invitrogen, Carlsbad, Calif.) and screened for orientation and sequence confirmed. Plasmid DNA was then isolated from overnight bacterial cultures by Maxiprep (Qiagen, Inc.). Plasmid DNA (10 μg) was added to MDA-MB-435s cells and cells were electroporated (0.22 kV, 960 uF) via Gene Pulser (Biorad laboratories, Hercules, Calif.). 48 hr post-electroporation, cells were transferred to selection medium (1000 ug/ml G418).
Binding Analysis. Target compounds were tested to determine their ability to bind with CCXCKR2 sites on MCF-7 and/or MDA-MB-435S cells. Efficiency-maximized radioligand binding using filtration protocols as described in Dairaghi D J, et al., HHV8-encoded vMIP-I selectively engages chemokine receptor CCR5. Agonist and antagonist profiles of viral chemokines., J. Biol. Chem. 1999 Jul. 30; 274(31): 21569-74 and Gosling J, et al., Cutting edge: identification of a novel chemokine receptor that binds dendritic cell-and T cell-active chemokines including ELC, SLC, and TECK., J. Immunol. 2000 Mar. 15; 164(6):2851-6 was used.
In these assays, MCF-7 and/or MDA-MB-435S cells were interrogated with the target compounds and the ability of these compounds to displace ^125I radiolabeled SDF-1 was assessed using the protocol described in Dairaghi and Gosling. The target compounds were added to the plate to the indicated concentration and were then incubated with cells followed by the addition of radiolabeled chemokine (^125I SDF-1) for 3 hr at 4° C. in the following binding medium (25 mM HEPES, 140 mM NaCl, 1 mM CaCl2, 5 mM MgCl2 and 0.2% bovine serum albumin, adjusted to pH 7.1). All assays were then incubated for 3 hrs at 4° C. with gentle agitation. Following incubation in all binding assays, reactions were aspirated onto PEI-treated GF/B glass filters (Packard) using a cell harvester (Packard) and washed twice (25 mM HEPES, 500 mM NaCl, 1 mM CaCl2, 5 mM MgCl2, adjusted to pH 7.1). […]

[1] = MCF-7 and/or MDA-MB-435S cells expressing CCXCKR2, 125I SDF-1, 3 hr at 4° C., read-out: Activity (ability to displace 125I SDF-1 from CCXCKR2)

T1 sequence (P25106 whole entry): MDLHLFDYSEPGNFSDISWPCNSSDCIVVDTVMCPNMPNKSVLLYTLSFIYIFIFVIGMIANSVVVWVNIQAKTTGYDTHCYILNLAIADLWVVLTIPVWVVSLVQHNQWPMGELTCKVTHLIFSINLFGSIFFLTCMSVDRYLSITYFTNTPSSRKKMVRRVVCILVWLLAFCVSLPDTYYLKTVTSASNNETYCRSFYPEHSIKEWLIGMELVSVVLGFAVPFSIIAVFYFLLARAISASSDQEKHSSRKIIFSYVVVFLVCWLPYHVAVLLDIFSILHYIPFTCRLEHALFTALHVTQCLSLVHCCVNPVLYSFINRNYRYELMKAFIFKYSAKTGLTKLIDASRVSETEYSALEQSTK

Row | Compound | IC50 [1] [nM] | IC50 [nM]
1 | COc1cc(C(=O)N(CCC2CCCN2C)Cc2nc3ccccc3s2)cc(OC)c1OC (stereo not drawn) [Example 13, N-Benzothiazol-2-ylmethyl-3,4,5-trimethoxy-N-[2-(1-methyl-pyrrolidin-2-yl)-ethyl]-benzamide] | < 500 | 
2 | COc1cc(C(=O)N(CCC2CCCN2C)Cc2nc3ccccc3n2C)cc(OC)c1OC (stereo not drawn) [Example 14, 3,4,5-Trimethoxy-N-(1-methyl-1H-benzoimidazol-2-ylmethyl)-N-[2-(1-methyl-pyrrolidin-2-yl)-ethyl]-benzamide] | < 10000 | 
3 | COc1cc(C(=O)N(CCC2CCCN2C)Cc2cc3ccccc3[nH]2)cc(OC)c1OC (stereo not drawn) [Example 15, N-(1H-Indol-2ylmethyl)-3,4,5-trimethoxy-N-[2-(1-methyl-pyrrolidin-2-yl)-ethyl]-benzamide] | < 2000 | 
4 | COc1cc(C(=O)N(CCCN2CCCCC2C)c2cccc(-c3ccccc3)c2)cc(OC)c1OC (stereo not drawn) [Example 17, N-Biphenyl-3-yl-3,4,5-trimethoxy-N-[3-(2-methyl-piperidin-1-yl)-propyl]-benzamide] | < 500 | 
5 | COc1cc(C(=O)N(CCCN2CCCCC2C)Cc2ccc3ccccc3c2)cc(OC)c1OC (stereo not drawn) [Example 18] | < 500 | 
6 | COc1cc(C(=O)N(CCCN2CCCCC2C)Cc2ncc(-c3ccccc3)s2)cc(OC)c1OC (stereo not drawn) [Example 19, 3,4,5-Trimethoxy-N-[3-(2-methyl-piperidin-1-yl)-propyl]-N-(5-phenyl-thiazol-2-ylmethyl)-benzamide] | < 2000 | 
7 | COc1cc(C(=O)N(CCCN2CCCCC2C)c2ccc3ccccc3c2)cc(OC)c1OC (stereo not drawn) [Example 20, 3,4,5-Trimethoxy-N-[3-(2-methyl-piperidin-1-yl)-propyl]-N-naphthalen-2-yl-benzamide] | < 2000 | 
8 | COc1ccc(C(=O)N(C[C@@H]2CCCN2)c2cccc(-c3ccccc3)c2)cc1OC [Example 21] | < 2000 | 
9 | COc1ccc(C(=O)N(C[C@@H]2CCCN2CCO)c2cccc(-c3ccccc3)c2)cc1OC [Example 22, N-Biphenyl-3-yl-(S)—N[1-(2-hydroxy-ethyl)-pyrrolidin-2ylmethyl]-3,4-dimethoxy-benzamide] | < 500 | 
10 | COc1ccc(C(=O)N(C[C@@H]2CCCN2C(C)C)c2cccc(-c3ccccc3)c2)cc1OC [Example 23, N-Biphenyl-3-yl-(S)—N-(1-isopropyl-pyrrolidin-2-ylmethyl)-3,4-dimethoxy-benzamide] | < 500 | 
11 | COc1ccc(C(=O)N(C[C@@H]2CCCN2CC2CCCCC2)c2cccc(-c3ccccc3)c2)cc1OC [Example 24, N-biphenyl-3-yl-(S)—N-(1-cyclohexylmethyl-pyrrolidin-2-ylmethyl)-3,4-dimethoxy-benzamide] | < 500 | 
12 | COc1ccc(C(=O)N(Cc2nc3ccccc3s2)C[C@@H]2CCCN2)cc1OC [Example 25, N-Benzothiazol-2-yl methyl-3,4 dimethoxy-N—(S)-pyrrolidin-2-ylmethyl-benzamide] | < 2000 | 
13 | COc1ccc(C(=O)N(Cc2nc3ccccc3s2)C[C@@H]2CCCN2CCO)cc1OC [Example 26, N-Benzothiazol-2-yl methyl-(S)—N-[1-(2-hydroxy-ethyl)-pyrrolidin-2-ylmethyl]-3,4-dimethoxy-benzamide] | < 500 | 
14 | COc1ccc(C(=O)N(Cc2nc3ccccc3s2)C[C@@H]2CCCN2CC2CCCCC2)cc1OC [Example 27, N-Benzothiazol-2-yl methyl-(S)—N-(1-cyclohexylmethyl-pyrrolidin-2-ylmethyl)-3,4-dimethoxy-benzamide] | < 500 | 
15 | COc1ccc(C(=O)N(Cc2nc3ccccc3s2)C[C@@H]2CCCN2C(C)C)cc1OC [Example 28, N-Benzothiazol-2-yl methyl-(S)—N-(1-isopropyl-pyrrolidin-2-ylmethyl)-3,4-dimethoxy-benzamide] | < 500 | 
16 | COc1ccc(C(=O)N(Cc2cc3ccccc3s2)C[C@@H]2CCCN2)cc1OC [Example 29, N-Benzo[b]thiophene-2-ylmethyl-3,4-dimethoxy-N—(S)-pyrrolidin-2-ylmethyl-benzamide] | < 2000 | 
17 | COc1ccc(C(=O)N(Cc2cc3ccccc3s2)C[C@@H]2CCCN2CC2CCCCC2)cc1OC [Example 30, N-Benzo[b]thiophen-2-yl methyl-(S)—N-(1-cyclohexylmethyl-pyrrolidin-2-ylmethyl)-3,4-dimethoxy-benzamide] | < 500 | 
18 | COc1cc(C(=O)N(C[C@@H]2CCCN2)c2cccc(-c3ccccc3)c2)ccc1OC(F)F [Example 31, N-Biphenyl-3-yl-4-difluoromethoxy-3-methoxy-(S)—N-pyrrolidin-2-ylmethyl-benzamide] | < 500 | 
19 | COc1cc(C(=O)N(C[C@@H]2CCCN2CC2CC2)c2cccc(-c3ccccc3)c2)ccc1OC(F)F [Example 32, N-Biphenyl-3-yl-(S)—N-(1-cyclopropylmethyl-pyrrolidin-2-ylmethyl)-4-difluoromethoxy-3-methoxy-benzamide] | < 500 | 
20 | COc1cc(C(=O)N(C[C@@H]2CCCN2CC2CCCCC2)c2cccc(-c3ccccc3)c2)ccc1OC(F)F [Example 33, N-biphenyl-3-yl-(S)—N-(1-cyclohexylmethyl-pyrrolidin-2-ylmethyl)-4-difluoromethoxy-3-methoxy-benzamide] | < 500 | 
21 | COc1ccc(C(=O)N(C[C@@H]2CCCN2CC2CC2)c2cccc(-c3cccc(C#N)c3)c2)cc1OC [Example 34, N-(3′-Cyano-biphenyl-3-yl)-(S)—N-(1-cyclopropylmethyl-pyrrolidin-2-ylmethyl)-3,4-dimethoxy-benzamide] | < 10000 | 
22 | COc1ccc(C(=O)N(C[C@@H]2CCCN2CC2CC2)c2cccc(-c3cccnc3)c2)cc1OC [Example 35, (S)—N-(1-Cyclopropylmethyl-pyrrolidin-2-ylmethyl)-3,4-dimethoxy-N-(3-pyridin-3-yl-phenyl)-benzamide] | < 2000 | 
23 | CCOC(=O)c1ccc(-c2cccc(N(C[C@@H]3CCCN3CC3CC3)C(=O)c3ccc(OC)c(OC)c3)c2)cc1 [Example 36, (S)-3′-[(1-Cyclopropylmethyl-pyrrolidin-2-ylmethyl)-(3,4-dimethoxy-benzoyl)-amino]-biphenyl-4-carboxylic acid ethyl ester] | < 10000 | 
24 | COc1ccc(C(=O)N(C[C@@H]2CCCN2CC2CC2)c2cccc(-c3ccc(N(C)C)cc3)c2)cc1OC [Example 37, (S)—N-(1-Cyclopropylmethyl-pyrrolidin-2-ylmethyl)-N-(4′-dimethylamino-biphenyl-3-yl)-3,4-dimethoxy-benzamide] | < 10000 | 
25 | COc1ccc(C(=O)N(C[C@@H]2CCCN2CC2CC2)c2cccc(-c3ccc(F)c(Cl)c3)c2)cc1OC [Example 38, N-(3′-Chloro-4′-fluoro-biphenyl-3-yl)-(S)—N-(1-cyclopropylmethyl-pyrrolidin-2-ylmethyl)-3,4-dimethoxy-benzamide] | < 10000 | 
26 | COc1cc(C(=O)N(Cc2cc3ccccc3cn2)C[C@@H]2CCCN2CC2CNC2)cc2c1OC(C)(C)O2 [Example 39, 7-Methoxy-2,2-dimethyl-benzo[1,3]dioxole-5-carboxylic acid ((S)-1-azetidin-3-ylmethyl-pyrrolidin-2-ylmethyl)-isoquinolin-3-ylmethyl-amide] | < 2000 | 
27 | COc1cc(C(=O)N(Cc2ccc3cccnc3n2)C[C@@H]2CCCN2C[C@H]2C[C@H]3CC[C@@H](C2)N3)cc2c1OC(C)(C)O2 [Example 41] |  | < 500
